Patent US20240408169A1 (priority 2023, published 2024)
Like-named read-outs stand apart in the source and are kept apart here. *1 amine or outer side, *2 acyl side, *3 side chain or, on linkers, in order; H or OH if unused. Where a SMILES comes first, the peptide text is derived from it. Bridges are numbered along the chain shown (N, C = ends). [ ]: non-standard residue; d: D form. The star is where a group is joined. X78 = CN1CCN(C2(c3ccc(-c4ccc(Cl)cc4C[C@@H](C(=O)[*:2])N(C)[*:1])cc3)CC2)CC1; X85 = CN([C@@H](Cc1cc(Cl)ccc1-c1ccc([C@]23CCOC[C@H]2C3)nc1)C(=O)[*:2])[*:1]; X63 = CC(C)N1CCN(c2ccc(-c3ccc(Cl)cc3C[C@@H](C(=O)[*:2])N(C)[*:1])cc2F)CC1; X36 = Cc1cc(-c2ccc(Cl)cc2C[C@@H](C(=O)[*:2])N(C)[*:1])ccc1N1CCN(C)CC1; X80 = CN1CC=C(c2ccc(-c3ccc(Cl)cc3C[C@@H](C(=O)[*:2])N(C)[*:1])cc2)CC1; X108 = CN([C@@H](Cc1cc(Cl)ccc1-c1ccc(CN2CCOCC2)cc1)C(=O)[*:2])[*:1]; X60 = CN([C@@H](Cc1cc(Cl)ccc1-c1cnn2ccncc12)C(=O)[*:2])[*:1]; NMehhhLys(Me) = CN([C@@H](CCCCCCCN(C)[*:3])C(=O)[*:2])[*:1]; NMe3Pal(2-OiPr,5-Cl) = CN[C@@H](Cc1cc(Cl)cnc1OC(C)C)C(=O)O; X104 = CN([C@@H](Cc1cc(Cl)ccc1C1=CCOCC1)C(=O)[*:2])[*:1]; NMe(hhhLys) = CN([C@@H](CCCCCCCN[*:3])C(=O)[*:2])[*:1]; NMe3Pal(2-OMe,5-Cl) = CN[C@@H](Cc1cc(Cl)cnc1OC)C(=O)O; Oxane2carbonyl(2R-CF3) = O=C([C@@]1(C(F)(F)F)CCCCO1)*; Cyclobutanecarbonyl(1-CF3) = O=C(C1(C(F)(F)F)CCC1)*; cBuCO(3,3-F2-1-CF3) = O=C(C1(C(F)(F)F)CC(F)(F)C1)*; Pro(trans-4-F) = O=C(O)[C@@H]1C[C@@H](F)CN1; Gly(cPr) = N[C@H](C(=O)O)C1CC1

Legend:
[1] = test system: WI-38 cells; test: MTT proliferation assay, WI-38; assay type: cell-based; conditions: 3 days compound exposure, 1:3 serial dilution starting at 10 μM;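 note: Eight- or ten-point dilution series, with exposure length chosen to span about three to four cell doublings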
[2] = target: T1, CyclinE1/CDK2 (Homo sapiens, UniProt P24864); test: Fluorescence Polarization (FP) competitive binding assay, Cyclin E1/Cdk2;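 note: readings taken after two-hour equilibration at room temperature in HEPES buffer with NaCl, DTT, NP-40 and BSA, IC50 fitted from eight-concentration serial dilution series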
T1 construct: purchased Eurofins, discovery 14-475

[3] = target: T2, CyclinA2/CDK2 (Homo sapiens, UniProt P20248); test: Fluorescence Polarization (FP) competitive binding assay, Cyclin A2/Cdk2;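 note: plates equilibrated two hours at room temperature before polarization reading, IC50 fitted from eight-concentration compound titration curves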
T2 construct: purchased CRELUX Protein Services

[4] = target: T3, CyclinB1/CDK1 (Homo sapiens, UniProt P14635); test: Fluorescence Polarization (FP) competitive binding assay, Cyclin B1/Cdk1;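 note: fluorescence polarization read after equilibration at room temperature, with IC50 taken from serially diluted dose-response curves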
T3 construct: purchased Eurofins, discovery 14-450

[5] = test system: NCI-H1048 cells; test: MTT proliferation assay, NCI-H1048; assay type: cell-based; conditions: 5 days compound exposure, 1:3 serial dilution starting at 10 μM;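 note: Dose-response in 96-well plates over 8 or 10 concentration points, with exposure spanning 3-4 cell doublings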
[6] = test system: OVCAR3 cells; test: MTT proliferation assay, OVCAR3; assay type: cell-based; conditions: 5 days compound exposure, 1:3 serial dilution starting at 10 μM;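 note: compound given as an 8- or 10-point series, one day after plating, with exposure covering roughly 3-4 cell doublings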
[7] = 10 nM Cyclin E1/Cdk2, 2 nM FAM probe, average of 2-3 independent experiments, read-out: Cyclin E FP IC50
[8] = 8 nM Cyclin A2/Cdk2, 2 nM FAM probe, average of 2-3 independent experiments, read-out: Cyclin A FP IC50
[9] = 10 nM Cyclin B1/Cdk1, 2 nM FAM probe; average of 2-3 independent experiments; read-out: Cyclin B FP IC50

Row | Structure (SMILES) | GI50 [1] [µM] | IC50 [2, 7] [µM] | IC50 [3, 8] [µM] | IC50 [4, 9] [µM] | GI50 [5] [µM] | GI50 [6] [µM] | IC50 [2] [µM] | IC50 [3] [µM] | IC50 ([4]; read-out: Cyclin B FP IC50; 10 nM Cyclin B1/Cdk1, 2 nM FAM probe; average of 2-3 independent experiments) [µM]
1 | CC(C)C[C@@H]1NC(=O)[C@@H](N(C)C(=O)[C@@H](NC(=O)[C@@H]2C[C@@H](F)CN2C(=O)C2(C(F)(F)F)CC(F)(F)C2)C2CC2)CCCCCCCN(C)C(=O)[C@H](Cc2cc(Cl)ccc2-c2cnn3ccncc23)N(C)C1=O [Example 305] ({cBuCO(3,3-F2-1-CF3)}-[Pro(trans-4-F)][Gly(cPr)][NMehhhLys(Me)]L[X60]; lactam 3-C) | 19.2 | 1.75 | 0.05 | 0.02 | 0.01 | 0.02 |  |  | 
2 | CCN(C(=O)[C@@H](NC(=O)[C@@H]1C[C@@H](F)CN1C(=O)[C@@]1(C(F)(F)F)CCCCO1)C1CC1)[C@H]1CCCCCCCN(C)C(=O)[C@H](Cc2cc(Cl)cnc2OC2CC2)N(C)C(=O)[C@H](CC(C)C)NC1=O [Example 221] | 16.6 |  |  |  | 0.02 | 0.03 | 0.18 | 0.06 | 0.02
3 | CC(C)C[C@@H]1NC(=O)[C@@H](N(C)C(=O)[C@@H](NC(=O)[C@@H]2C[C@@H](F)CN2C(=O)C2(C(F)(F)F)CC(F)(F)C2)C2CC2)CCCCCCCN(C)C(=O)[C@H](Cc2cc(Cl)ccc2-c2ccc(N3CCN(C(C)C)CC3)c(F)c2)N(C)C1=O [Example 413] ({cBuCO(3,3-F2-1-CF3)}-[Pro(trans-4-F)][Gly(cPr)][NMehhhLys(Me)]L[X63]; lactam 3-C) | 1.6 | 1.31 | 0.02 | 0.02 | 0.01 | 0.01 |  |  | 
4 | COc1ncc(Cl)cc1C[C@H]1C(=O)NCCCCCCC[C@H](N(C)C(=O)[C@@H](NC(=O)[C@@H]2C[C@@H](F)CN2C(=O)[C@@]2(C(F)(F)F)CCCCO2)C2CC2)C(=O)N[C@@H](CC(C)C)C(=O)N1C [Example 274] ({Oxane2carbonyl(2R-CF3)}-[Pro(trans-4-F)][Gly(cPr)][NMe(hhhLys)]L[NMe3Pal(2-OMe,5-Cl)]; lactam 3-C) | 10.5 | 0.1 | 0.03 | 0.02 | 0.01 | 0.01 |  |  | 
5 | CC(C)C[C@@H]1NC(=O)[C@@H](N(C)C(=O)[C@@H](NC(=O)[C@@H]2C[C@@H](F)CN2C(=O)C2(C(F)(F)F)CCC2)C2CC2)CC=CCCCCN(C)C(=O)[C@H](Cc2cc(Cl)ccc2-c2cnn(C)c2)N(C)C1=O [Example 34] | 13.1 | 0.21 | 0.02 | 0.02 | 0.06 | 0.11 |  |  | 
6 | CC(C)C[C@@H]1NC(=O)[C@@H](N(C)C(=O)[C@@H](NC(=O)[C@@H]2C[C@@H](F)CN2C(=O)C2(C(F)(F)F)CC(F)(F)C2)C2CC2)CCCCCCCN(C)C(=O)[C@H](Cc2cc(Cl)ccc2-c2ccc([C@]34CCOC[C@H]3C4)nc2)N(C)C1=O [Example 369] ({cBuCO(3,3-F2-1-CF3)}-[Pro(trans-4-F)][Gly(cPr)][NMehhhLys(Me)]L[X85]; lactam 3-C) | 4.54 | 1.49 | 0.02 | 0.02 | 0.02 | 0.02 |  |  | 
7 | CC(C)C[C@@H]1NC(=O)[C@@H](N(C)C(=O)[C@@H](NC(=O)[C@@H]2C[C@@H](F)CN2C(=O)C2(C(F)(F)F)CCC2)C2CC2)CC=CCCCCN(C)C(=O)[C@H](Cc2cc(Cl)ccc2-c2cncnc2)N(C)C1=O [Example 35] | 12.4 | 1.69 | 0.12 | 0.02 | 0.17 | 0.35 |  |  | 
8 | CC(C)C[C@@H]1NC(=O)[C@@H](N(C)C(=O)[C@@H](NC(=O)[C@@H]2C[C@@H](F)CN2C(=O)C2(C(F)(F)F)CC(F)(F)C2)C2CC2)CCCCCCCNC(=O)[C@H](Cc2cc(Cl)ccc2C2=CCOCC2)N(C)C1=O [Example 21] ({cBuCO(3,3-F2-1-CF3)}-[Pro(trans-4-F)][Gly(cPr)][NMe(hhhLys)]L[X104]; lactam 3-C) | 6.85 | 1.13 | 0.02 | 0.02 | 0.01 | 0.02 |  |  | 
9 | CC(C)C[C@@H]1NC(=O)[C@@H](N(C)C(=O)[C@@H](NC(=O)[C@@H]2C[C@@H](F)CN2C(=O)C2(C(F)(F)F)CC(F)(F)C2)C2CC2)CCCCCCCN(C)C(=O)[C@H](Cc2cc(Cl)ccc2-c2ccc(C3(N4CCN(C)CC4)CC3)cc2)N(C)C1=O [Example 381] ({cBuCO(3,3-F2-1-CF3)}-[Pro(trans-4-F)][Gly(cPr)][NMehhhLys(Me)]L[X78]; lactam 3-C) | 2.3 | 1.31 | 0.02 | 0.02 | 0.02 | 0.04 |  |  | 
10 | Cc1cc(-c2ccc(Cl)cc2C[C@H]2C(=O)N(C)CCCCCCC[C@H](N(C)C(=O)[C@@H](NC(=O)[C@@H]3C[C@@H](F)CN3C(=O)C3(C(F)(F)F)CC(F)(F)C3)C3CC3)C(=O)N[C@@H](CC(C)C)C(=O)N2C)ccc1N1CCN(C)CC1 [Example 374] ({cBuCO(3,3-F2-1-CF3)}-[Pro(trans-4-F)][Gly(cPr)][NMehhhLys(Me)]L[X36]; lactam 3-C) | 2.22 | 0.87 | 0.02 | 0.02 | 0.01 | 0.01 |  |  | 
11 | CC(C)C[C@@H]1NC(=O)[C@@H](N(C)C(=O)[C@@H](NC(=O)[C@@H]2C[C@@H](F)CN2C(=O)C2(C(F)(F)F)CC(F)(F)C2)C2CC2)CCCCCCCN(C)C(=O)[C@H](Cc2cc(Cl)ccc2-c2ccc(CN3CCOCC3)cc2)N(C)C1=O [Example 359, (2S,4R)—N—((S)-2-(((3S,6S,9S)-3-((4-chloro-4′-(morpholinomethyl)-[1,1′-biphenyl]-2-yl)methyl)-6-isobutyl-1,4-dimethyl-2,5,8-trioxo-1,4,7-triazacyclohexadecan-9-yl)(methyl)amino)-1-cyclopropyl-2-oxoethyl)-1-(3,3-difluoro-1-(trifluoromethyl)cyclobutane-1-carbonyl)-4-fluoropyrrolidine-2-carboxamide] ({cBuCO(3,3-F2-1-CF3)}-[Pro(trans-4-F)][Gly(cPr)][NMehhhLys(Me)]L[X108]; lactam 3-C) | 4.56 | 0.68 | 0.02 | 0.02 | 0.01 | 0.01 |  |  | 
12 | CC(C)C[C@@H]1NC(=O)[C@@H](N(C)C(=O)[C@@H](NC(=O)[C@@H]2C[C@@H](F)CN2C(=O)C2(C(F)(F)F)CCC2)C2CC2)CCCCCCCNC(=O)[C@H](Cc2cc(Cl)cnc2OC(C)C)N(C)C1=O [Example 138] ({Cyclobutanecarbonyl(1-CF3)}-[Pro(trans-4-F)][Gly(cPr)][NMe(hhhLys)]L[NMe3Pal(2-OiPr,5-Cl)]; lactam 3-C) | 6.67 | 0.11 | 0.03 | 0.02 | 0.2 | 0.28 |  |  | 
13 | CC(C)C[C@@H]1NC(=O)[C@@H](N(C)C(=O)[C@@H](NC(=O)[C@@H]2C[C@@H](F)CN2C(=O)C2(C(F)(F)F)CC(F)(F)C2)C2CC2)CCCCCCCN(C)C(=O)[C@H](Cc2cc(Cl)ccc2-c2ccc(C3=CCN(C)CC3)cc2)N(C)C1=O [Example 351] ({cBuCO(3,3-F2-1-CF3)}-[Pro(trans-4-F)][Gly(cPr)][NMehhhLys(Me)]L[X80]; lactam 3-C) | 1.78 | 0.97 | 0.02 | 0.02 | 0.01 | 0.01 |  |  | 
